Reference: patent US12077495B2 (priority 2018, dated 2024)
pKi: −log10 of the molar value.

Legend:
[1] = molecular target: T1, CAMK2A pThr286 autophosphorylation (Mus musculus, UniProt P11798); assay: pThr286 autophosphorylation in dissected mouse cortex after photothrombosis (Western blot); type: in vivo, mice; settings: 175 mg/kg i.p.; cortex tissue; pThr286 normalized to total CAMK2A
T1 construct: cortical tissue isolated from mice subjected to photothrombotic injury; from tissue; host or cells: mouse cortex (infarct core), C57BL/6J, after in vivo dosing
T1 sequence (P11798 whole entry): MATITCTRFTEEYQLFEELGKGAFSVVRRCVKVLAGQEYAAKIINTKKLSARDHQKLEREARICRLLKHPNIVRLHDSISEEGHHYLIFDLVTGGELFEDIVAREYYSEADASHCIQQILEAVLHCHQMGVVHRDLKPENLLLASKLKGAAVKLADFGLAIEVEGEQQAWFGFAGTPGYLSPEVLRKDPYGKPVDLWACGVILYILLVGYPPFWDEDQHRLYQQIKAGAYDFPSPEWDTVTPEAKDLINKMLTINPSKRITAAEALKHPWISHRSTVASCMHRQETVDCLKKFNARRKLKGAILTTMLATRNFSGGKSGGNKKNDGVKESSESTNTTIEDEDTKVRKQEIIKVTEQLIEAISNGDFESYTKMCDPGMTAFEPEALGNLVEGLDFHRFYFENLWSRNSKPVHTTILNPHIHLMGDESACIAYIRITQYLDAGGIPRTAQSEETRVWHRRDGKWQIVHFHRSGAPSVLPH
Protocol: Along with the standard protocol for photothrombotic focal ischemia, mice were treated with either saline or 175 mg/kg A (i.p.) 30 min after the injury. Three hours after the injury, mice were sacrificed, brains were dissected out and immediately submerged in ice-cold PBS supplemented with 1% phosphatase and protease inhibitors (Phosphatase inhibitor cocktail 3 #P0044 (Sigma), Phosphatase inhibitor cocktail 2 #P5726 (Sigma) and complete EDTA protease inhibitors (Roche) for 5 min. Cortex tissue from the infarct core region (i.e. 1.5 mm right of bregma including the primary motor cortex with a diameter of 2 mm) was dissected and snap-frozen on dry ice. Tissue homogenization was performed using 1×RIPA buffer supplemented with phosphatase and protease inhibitors and a Bullet Blender. Autophosphorylation was assessed by Western blot analysis, comparing the total level of CAMK2A (quantified using anti-CAMK2A, #NB100-1983, Novus Biologicals) to the level of phosphorylated CAMK2A (pThr286: #12716S, Cell Signalling Technology; goat anti-rabbit HRP: #PI-1000 X0126, Vector). […]
To this end, sham mice or mice were treated with either saline or 175 mg/kg A (i.p.) 3 hrs after the injury. […] Autophosphorylation was assessed by Western blot analysis and levels of pThr286 CAMK2A normalized to total CAMK2A to detect changes in autophosphorylation.

CAMK2A = molecular target: T2, CAMK2A (Rattus norvegicus, UniProt P11275); assay: biochemical; type: binding; settings: whole cell lysates of CAMK2A-transfected HEK293T cells
T2 construct: host or cells: HEK293T
T2 sequence (P11275 whole entry): as the sequence (P11798 whole entry) above
Protocol: Cells were transfected with rat CAMK2A (Origene construct RR201121) or rat CAMK2B (Origene construct RR200520) using PolyFect (Qiagen, West Sussex, UK) according to the manufacturer's protocol. Whole cell homogenates were prepared 48 hr post-transfection by washing the cells with ice-cold 1×PBS and harvesting by scraping. Cells were collected and centrifuged for 10 min at 1000×g. Cell pellets were resuspended in ice-cold 1×PBS and homogenized using 2×1 mm zirkonium beads in a bullet blender for 20 s at max speed (NextAdvance, NY, USA). Homogenates were cleared by centrifugation (10 min, 4° C., 14.000×g). Protein concentration was determined using the Bradford protein assay. 150-200 μg protein was incubated with 5 nM ^3H-A and test compound in 1 ml total volume for 1 hr at 0-4° C. […] Proteins were then precipitated by addition of ice-cold acetone (4× of the assay volume), vortexing and incubation at −20° C. for 1 hr. Proteins were filtrated rapidly through GF/C unifilters (Whatman) and washed. The dried filters were added scintillation liquid and radioactivity measured on a Tricarb 2100 Scintillation counter (Packard).
A) Principle of photoaffinity labelling workflow. […] After introduction of biotin through a Staudinger-Bertozzi ligation to EZ-Link™ Phosphine-PEG3-Biotin (ThermoFisher Scientific), the biotin-labelled proteins were affinity-purified and subjected to LC-MS/MS analysis. […] C)^3H-A binding to cortical membranes from CAMK2A and CAMK2B knock-out mouse brains.
Human/rat CAMK2A expressed in HEK cells was assayed in an in-house established ^3H-A filtration binding assay performed on whole cell lysates of CAMK2A-transfected HEK293T cells.

Question: For `O=C(O)C1=CC(O)CC1` (centres unmarked) [Compound A, 3-hydroxycyclopent-1-enecarboxylic acid], which “decrease in pThr286 autophosphorylation” value [1] is on record?
Answer: 73%

Question: And the pKi (CAMK2A)?
Answer: 5.71
